From article PMC3236397 (Frontiers in Pharmacology, 2011)
Blank lines part the entries; values can stand above or below the compound they belong to.

Tests used:
PTH1 = PTH1 (Homo sapiens, UniProt Q03431); assay: GPCR cell-based functional assay, Safety and Liability Panel; settings: read-out: Percentage inhibition
PAC1 long isoform = assay: as above; set-up: species or system human; settings: 10 μM BIRB0796
OPRD1 = OPRD1 (Homo sapiens, UniProt P41143); assay: as above; settings: read-out: Percentage inhibition
OPRK1 = OPRK1 (Homo sapiens, UniProt P41145); assay: as above; settings: read-out: Percentage inhibition
D1 = D1 (Homo sapiens, UniProt P21728); assay: as above; settings: read-out: Percentage inhibition
NMU1 = NMU1 (Homo sapiens, UniProt Q9HB89); assay: as above; settings: read-out: Percentage inhibition
5-HT2A = 5-HT2A (Homo sapiens, UniProt P28223); assay: as above; settings: read-out: Percentage inhibition
PAF = PAF (Homo sapiens, UniProt P25105); assay: as above; settings: read-out: Percentage inhibition
Beta 1 = Beta 1 (Homo sapiens, UniProt P08588); assay: as above; settings: read-out: Percentage inhibition
NK3 = NK3 (Homo sapiens, UniProt P29371); assay: as above; settings: read-out: Percentage inhibition
PRP = PRP (Homo sapiens, UniProt P49683); assay: as above; settings: read-out: Percentage inhibition
Beta 2 = Beta 2 (Homo sapiens, UniProt P07550); assay: as above; settings: read-out: Percentage inhibition
MC5 = MC5 (Homo sapiens, UniProt P33032); assay: as above; settings: read-out: Percentage inhibition
A3 = A3 (Homo sapiens, UniProt P0DMS8); assay: as above; settings: read-out: Percentage inhibition
CysLT1 = CysLT1 (Homo sapiens, UniProt Q9Y271); assay: as above; settings: read-out: Percentage inhibition
OPRM1 = OPRM1 (Homo sapiens, UniProt P35372); assay: as above; settings: OPRM1, read-out: Percentage inhibition
BB2 = BB2 (Homo sapiens, UniProt P30550); assay: as above; settings: read-out: Percentage inhibition
M2 = M2 (Homo sapiens, UniProt P08172); assay: as above; settings: read-out: Percentage inhibition
AT1 = AT1 (Homo sapiens, UniProt P30556); assay: as above; settings: read-out: Percentage inhibition
CB2 = CB2 (Homo sapiens, UniProt P34972); assay: as above; settings: read-out: Percentage inhibition
Alpha1A = Alpha1A (Homo sapiens, UniProt P35348); assay: as above; settings: read-out: Percentage inhibition
DP = DP (Homo sapiens, UniProt Q13258); assay: as above; settings: read-out: Percentage inhibition
FPR1 = FPR1 (Homo sapiens, UniProt P21462); assay: as above; settings: read-out: Percentage inhibition
UT/GPR14 = UT/GPR14 (Homo sapiens, UniProt Q9UKP6); assay: as above; settings: read-out: Percentage inhibition
OT = OT (Homo sapiens, UniProt P30559); assay: as above; settings: read-out: Percentage inhibition
D5 = D5 (Homo sapiens, UniProt P21918); assay: as above; settings: read-out: Percentage inhibition
5-HT1A = 5-HT1A (Homo sapiens, UniProt P08908); assay: as above; settings: read-out: Percentage inhibition
S1P3 = S1P3 (Homo sapiens, UniProt Q99500); assay: as above; settings: read-out: Percentage inhibition
CRF1 = CRF1 (Homo sapiens, UniProt P34998); assay: as above; settings: read-out: Percentage inhibition
Alpha1D = Alpha1D (Homo sapiens, UniProt P25100); assay: as above; settings: read-out: Percentage inhibition
C5aR = C5aR (Homo sapiens, UniProt P21730); assay: as above; settings: read-out: Percentage inhibition
GnRH/LHRH = GnRH/LHRH (Homo sapiens, UniProt P30968); assay: as above; settings: read-out: Percentage inhibition
Trypsin-mediated PARs = assay: as above; set-up: species or system human; settings: 10 μM BIRB0796
IP1 = IP1 (Homo sapiens, UniProt P43119); assay: as above; settings: read-out: Percentage inhibition
CXCR1 = CXCR1 (Homo sapiens, UniProt P25024); assay: as above; settings: read-out: Percentage inhibition
SST4 = SST4 (Homo sapiens, UniProt P31391); assay: as above; settings: read-out: Percentage inhibition
hERG = hERG (Homo sapiens, UniProt Q12809); assay: in vitro
5-HT2C = 5-HT2C (Homo sapiens, UniProt P28335); assay: GPCR cell-based functional assay, Safety and Liability Panel; settings: read-out: Percentage inhibition
V1A = V1A (Homo sapiens, UniProt P37288); assay: as above; settings: read-out: Percentage inhibition
FP = FP (Homo sapiens, UniProt P43088); assay: as above; settings: read-out: Percentage inhibition
V2 = V2 (Homo sapiens, UniProt P30518); assay: as above; settings: read-out: Percentage inhibition
Alpha2A = Alpha2A (Homo sapiens, UniProt P08913); assay: as above; settings: read-out: Percentage inhibition
GPR109A = GPR109A (Homo sapiens, UniProt Q8TDS4); assay: as above; settings: read-out: Percentage inhibition
TP = TP (Homo sapiens, UniProt P21731); assay: as above; settings: read-out: Percentage inhibition
A1 = A1 (Homo sapiens, UniProt P30542); assay: as above; settings: read-out: Percentage inhibition
VPAC2 = VPAC2 (Homo sapiens, UniProt P41587); assay: as above; settings: read-out: Percentage inhibition
CB1 = CB1 (Homo sapiens, UniProt P21554); assay: as above; settings: read-out: Percentage inhibition
Kv1.5 = Kv1.5 (Homo sapiens, UniProt P22460); assay: Cardiac ion channel functional assay, Safety and Liability Panel; assay type: cell-based
ETB = ETB (Homo sapiens, UniProt P24530); assay: GPCR cell-based functional assay, Safety and Liability Panel; settings: read-out: Percentage inhibition
CCR1 = CCR1 (Homo sapiens, UniProt P32246); assay: as above; settings: read-out: Percentage inhibition
BLT1 = BLT1 (Homo sapiens, UniProt Q15722); assay: as above; settings: read-out: Percentage inhibition
NTR1 = NTR1 (Homo sapiens, UniProt P30989); assay: as above; settings: read-out: Percentage inhibition
LPA3 = LPA3 (Homo sapiens, UniProt Q9UBY5); assay: as above; settings: read-out: Percentage inhibition
B2 = B2 (Homo sapiens, UniProt P30411); assay: as above; settings: read-out: Percentage inhibition
H3 = H3 (Homo sapiens, UniProt Q9Y5N1); assay: as above; settings: read-out: Percentage inhibition
P2Y1 = P2Y1 (Homo sapiens, UniProt P47900); assay: as above; settings: read-out: Percentage inhibition
CGRP1 = CGRP1 (Homo sapiens, UniProt O60894+Q16602); assay: as above; settings: read-out: Percentage inhibition
GAL1 = GAL1 (Homo sapiens, UniProt P47211); assay: as above; settings: read-out: Percentage inhibition
M1 = M1 (Homo sapiens, UniProt P11229); assay: as above; settings: read-out: Percentage inhibition
Y2 = Y2 (Homo sapiens, UniProt P49146); assay: as above; settings: read-out: Percentage inhibition
D2L = D2L (Homo sapiens, UniProt P14416); assay: as above; settings: read-out: Percentage inhibition
VPAC1 = VPAC1 (Homo sapiens, UniProt P32241); assay: as above; settings: read-out: Percentage inhibition
LPA1 = LPA1 (Homo sapiens, UniProt Q92633); assay: as above; settings: read-out: Percentage inhibition
OX1 = OX1 (Homo sapiens, UniProt O43613); assay: as above; settings: read-out: Percentage inhibition
Motilin receptor = Motilin receptor (Homo sapiens, UniProt O43193); assay: as above; settings: read-out: Percentage inhibition
TSH = TSH (Homo sapiens, UniProt P16473); assay: as above; settings: read-out: Percentage inhibition
5-HT2B = 5-HT2B (Homo sapiens, UniProt P41595); assay: as above; settings: read-out: Percentage inhibition
NK1 = NK1 (Homo sapiens, UniProt P25103); assay: as above; settings: read-out: Percentage inhibition
H2 = H2 (Homo sapiens, UniProt P25021); assay: as above; settings: read-out: Percentage inhibition
PK1 = PK1 (Homo sapiens, UniProt Q8TCW9); assay: as above; settings: PK-1, read-out: Percentage inhibition
M3 = M3 (Homo sapiens, UniProt P20309); assay: as above; settings: read-out: Percentage inhibition
EP2 = EP2 (Homo sapiens, UniProt P43116); assay: as above; settings: read-out: Percentage inhibition
CX3CR1 = CX3CR1 (Homo sapiens, UniProt P49238); assay: as above; settings: read-out: Percentage inhibition
CCK2 = CCK2 (Homo sapiens, UniProt P32239); assay: as above; settings: read-out: Percentage inhibition
CCR2B = CCR2B (Homo sapiens, UniProt P41597); assay: as above; settings: read-out: Percentage inhibition
H1 = H1 (Homo sapiens, UniProt P35367); assay: as above; settings: read-out: Percentage inhibition
ETA = ETA (Homo sapiens, UniProt P25101); assay: as above; settings: read-out: Percentage inhibition
EP3 = EP3 (Homo sapiens, UniProt P43115); assay: as above; settings: read-out: Percentage inhibition
Nav1.6 = Nav1.6 (Homo sapiens, UniProt Q9UQD0); assay: IonWorks Quattro 2-pulse inactivated-state protocol; assay type: cell-based; settings: Predicted IC50 potency values Nav1.6 P1, Pulse 1, 2-pulse protocol

Sequence of CRF1 (P34998 24-415): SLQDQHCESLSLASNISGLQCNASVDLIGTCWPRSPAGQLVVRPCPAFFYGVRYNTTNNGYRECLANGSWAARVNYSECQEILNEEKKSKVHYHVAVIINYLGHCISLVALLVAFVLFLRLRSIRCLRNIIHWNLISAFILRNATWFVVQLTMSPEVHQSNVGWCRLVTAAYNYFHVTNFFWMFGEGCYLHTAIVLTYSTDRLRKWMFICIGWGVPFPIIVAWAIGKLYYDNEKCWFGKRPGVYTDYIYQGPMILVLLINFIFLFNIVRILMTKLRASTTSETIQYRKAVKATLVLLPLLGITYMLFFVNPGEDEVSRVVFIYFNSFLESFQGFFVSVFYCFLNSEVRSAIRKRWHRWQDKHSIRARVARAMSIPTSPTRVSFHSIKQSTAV
Sequence of TSH (P16473 21-764): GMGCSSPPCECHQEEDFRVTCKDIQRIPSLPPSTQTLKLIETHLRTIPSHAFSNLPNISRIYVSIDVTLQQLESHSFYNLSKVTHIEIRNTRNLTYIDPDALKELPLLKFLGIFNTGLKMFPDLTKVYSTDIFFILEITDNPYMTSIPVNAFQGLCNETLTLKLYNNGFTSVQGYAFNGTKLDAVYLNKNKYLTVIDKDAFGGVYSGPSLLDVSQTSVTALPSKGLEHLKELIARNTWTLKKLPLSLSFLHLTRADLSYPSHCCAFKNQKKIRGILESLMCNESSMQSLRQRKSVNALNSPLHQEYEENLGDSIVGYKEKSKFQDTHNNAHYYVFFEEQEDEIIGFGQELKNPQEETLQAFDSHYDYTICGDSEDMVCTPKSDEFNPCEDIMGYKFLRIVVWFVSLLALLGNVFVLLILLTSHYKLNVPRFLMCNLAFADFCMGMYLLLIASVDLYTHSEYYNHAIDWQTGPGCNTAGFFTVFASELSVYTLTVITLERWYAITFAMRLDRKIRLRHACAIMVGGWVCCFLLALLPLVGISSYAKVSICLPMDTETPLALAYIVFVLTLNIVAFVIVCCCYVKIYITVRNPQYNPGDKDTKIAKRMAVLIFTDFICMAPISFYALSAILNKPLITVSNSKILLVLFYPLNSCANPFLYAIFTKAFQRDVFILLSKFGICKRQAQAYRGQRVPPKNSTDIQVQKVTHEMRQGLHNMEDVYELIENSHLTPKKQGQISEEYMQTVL
Sequence of LPA1 (Q92633 whole entry): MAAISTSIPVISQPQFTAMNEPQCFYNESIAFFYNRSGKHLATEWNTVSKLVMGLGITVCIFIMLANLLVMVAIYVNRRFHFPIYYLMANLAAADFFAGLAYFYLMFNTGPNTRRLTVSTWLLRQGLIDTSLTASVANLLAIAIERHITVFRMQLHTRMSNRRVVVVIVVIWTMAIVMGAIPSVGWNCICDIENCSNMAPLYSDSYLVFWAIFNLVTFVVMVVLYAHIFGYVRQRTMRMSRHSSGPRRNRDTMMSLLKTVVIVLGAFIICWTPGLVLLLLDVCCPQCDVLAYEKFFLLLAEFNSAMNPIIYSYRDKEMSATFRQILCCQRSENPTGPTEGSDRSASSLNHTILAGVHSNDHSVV
Sequence of Beta 1 (P08588 whole entry): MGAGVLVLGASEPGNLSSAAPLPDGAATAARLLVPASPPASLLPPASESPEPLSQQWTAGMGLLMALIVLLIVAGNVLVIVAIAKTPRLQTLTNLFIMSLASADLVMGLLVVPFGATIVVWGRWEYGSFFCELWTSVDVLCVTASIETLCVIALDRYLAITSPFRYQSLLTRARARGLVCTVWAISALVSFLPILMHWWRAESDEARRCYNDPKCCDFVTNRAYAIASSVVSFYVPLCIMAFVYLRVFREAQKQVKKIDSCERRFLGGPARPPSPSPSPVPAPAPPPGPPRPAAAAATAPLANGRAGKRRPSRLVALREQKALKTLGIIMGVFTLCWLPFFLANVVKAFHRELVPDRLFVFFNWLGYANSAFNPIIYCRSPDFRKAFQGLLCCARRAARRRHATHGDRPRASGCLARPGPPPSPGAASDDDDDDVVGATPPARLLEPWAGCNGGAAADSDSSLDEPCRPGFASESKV
Sequence of VPAC1 (P32241 31-457): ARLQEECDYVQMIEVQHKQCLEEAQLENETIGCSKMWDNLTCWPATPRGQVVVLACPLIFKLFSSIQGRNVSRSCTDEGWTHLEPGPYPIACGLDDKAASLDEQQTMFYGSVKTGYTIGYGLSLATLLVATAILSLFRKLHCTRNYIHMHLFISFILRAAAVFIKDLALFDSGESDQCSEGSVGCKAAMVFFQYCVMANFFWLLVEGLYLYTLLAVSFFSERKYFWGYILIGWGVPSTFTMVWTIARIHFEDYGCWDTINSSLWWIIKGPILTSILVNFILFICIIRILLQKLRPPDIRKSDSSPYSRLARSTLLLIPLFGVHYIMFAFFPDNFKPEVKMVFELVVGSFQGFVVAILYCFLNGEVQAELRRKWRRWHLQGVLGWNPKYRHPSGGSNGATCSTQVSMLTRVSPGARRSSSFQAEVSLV
Sequence of Alpha1D (P25100 whole entry): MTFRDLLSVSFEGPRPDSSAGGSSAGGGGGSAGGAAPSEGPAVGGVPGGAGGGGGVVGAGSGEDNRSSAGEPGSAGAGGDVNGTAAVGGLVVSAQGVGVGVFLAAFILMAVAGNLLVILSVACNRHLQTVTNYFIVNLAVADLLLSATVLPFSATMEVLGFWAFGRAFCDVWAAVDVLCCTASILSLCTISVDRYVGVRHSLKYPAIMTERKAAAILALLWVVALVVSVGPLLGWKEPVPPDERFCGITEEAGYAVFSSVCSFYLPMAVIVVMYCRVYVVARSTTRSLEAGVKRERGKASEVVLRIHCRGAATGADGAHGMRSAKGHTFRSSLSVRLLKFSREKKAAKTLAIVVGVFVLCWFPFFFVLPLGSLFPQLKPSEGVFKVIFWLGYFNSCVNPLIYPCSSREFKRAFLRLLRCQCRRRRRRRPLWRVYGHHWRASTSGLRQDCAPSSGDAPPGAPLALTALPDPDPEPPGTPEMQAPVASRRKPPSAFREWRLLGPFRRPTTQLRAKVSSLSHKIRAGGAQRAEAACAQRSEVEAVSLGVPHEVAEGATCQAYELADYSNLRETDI
Sequence of PK1 (Q8TCW9 whole entry): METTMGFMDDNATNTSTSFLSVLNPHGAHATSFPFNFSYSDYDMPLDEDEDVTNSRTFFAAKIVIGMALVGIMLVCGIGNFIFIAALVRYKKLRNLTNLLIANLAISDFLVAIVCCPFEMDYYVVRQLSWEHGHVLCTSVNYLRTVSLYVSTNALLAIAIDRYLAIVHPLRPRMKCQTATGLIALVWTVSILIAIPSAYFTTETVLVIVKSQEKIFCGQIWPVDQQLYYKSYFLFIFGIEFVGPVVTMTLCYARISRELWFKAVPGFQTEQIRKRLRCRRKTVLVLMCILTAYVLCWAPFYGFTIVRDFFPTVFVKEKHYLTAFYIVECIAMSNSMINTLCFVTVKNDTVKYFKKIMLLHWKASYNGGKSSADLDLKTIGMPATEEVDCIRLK
Sequence of D2L (P14416 whole entry): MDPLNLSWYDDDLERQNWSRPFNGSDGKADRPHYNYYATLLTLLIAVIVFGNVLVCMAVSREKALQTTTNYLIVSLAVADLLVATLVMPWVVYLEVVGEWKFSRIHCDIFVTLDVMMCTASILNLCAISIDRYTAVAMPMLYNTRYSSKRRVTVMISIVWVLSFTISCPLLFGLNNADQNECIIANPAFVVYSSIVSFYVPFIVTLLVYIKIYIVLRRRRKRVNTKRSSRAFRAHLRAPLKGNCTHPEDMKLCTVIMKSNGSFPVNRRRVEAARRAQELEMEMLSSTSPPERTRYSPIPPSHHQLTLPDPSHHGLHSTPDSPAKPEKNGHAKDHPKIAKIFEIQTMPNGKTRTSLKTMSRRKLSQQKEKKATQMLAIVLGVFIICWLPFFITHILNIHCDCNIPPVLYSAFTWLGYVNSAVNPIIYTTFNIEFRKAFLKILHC
Sequence of CCR1 (P32246 whole entry): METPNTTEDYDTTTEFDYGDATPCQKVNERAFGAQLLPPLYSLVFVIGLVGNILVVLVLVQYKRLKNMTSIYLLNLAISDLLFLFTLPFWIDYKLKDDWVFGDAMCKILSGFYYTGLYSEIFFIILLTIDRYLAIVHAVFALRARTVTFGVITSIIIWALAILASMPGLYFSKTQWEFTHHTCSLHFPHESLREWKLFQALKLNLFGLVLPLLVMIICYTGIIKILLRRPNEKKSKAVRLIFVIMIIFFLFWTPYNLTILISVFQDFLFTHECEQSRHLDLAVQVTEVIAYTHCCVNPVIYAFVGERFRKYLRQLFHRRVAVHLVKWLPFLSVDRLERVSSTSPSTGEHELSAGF
Sequence of C5aR (P21730 whole entry): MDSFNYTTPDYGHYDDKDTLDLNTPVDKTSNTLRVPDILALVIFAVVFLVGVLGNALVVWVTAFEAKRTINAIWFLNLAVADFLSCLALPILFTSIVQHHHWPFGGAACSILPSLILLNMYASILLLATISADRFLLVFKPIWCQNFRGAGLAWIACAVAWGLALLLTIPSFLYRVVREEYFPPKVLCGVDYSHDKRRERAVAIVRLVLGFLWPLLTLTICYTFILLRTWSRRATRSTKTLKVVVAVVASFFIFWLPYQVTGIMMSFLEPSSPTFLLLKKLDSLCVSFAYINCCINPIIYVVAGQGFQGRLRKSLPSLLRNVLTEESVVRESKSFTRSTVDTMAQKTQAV
Sequence of NMU1 (Q9HB89 whole entry): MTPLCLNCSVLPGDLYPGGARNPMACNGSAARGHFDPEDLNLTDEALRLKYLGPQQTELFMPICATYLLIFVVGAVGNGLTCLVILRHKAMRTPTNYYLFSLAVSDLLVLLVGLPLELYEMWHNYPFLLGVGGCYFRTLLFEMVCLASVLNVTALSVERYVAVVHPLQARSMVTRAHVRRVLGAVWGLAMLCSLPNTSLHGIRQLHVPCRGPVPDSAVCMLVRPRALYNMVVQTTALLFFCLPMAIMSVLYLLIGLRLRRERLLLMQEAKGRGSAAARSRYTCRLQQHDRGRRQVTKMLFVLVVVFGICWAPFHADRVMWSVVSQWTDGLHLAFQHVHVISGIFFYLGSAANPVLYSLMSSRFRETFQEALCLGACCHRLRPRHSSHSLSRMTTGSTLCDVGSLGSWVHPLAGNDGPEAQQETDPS

SMILES: Cc1ccc(-n2nc(C(C)(C)C)cc2NC(=O)Nc2ccc(OCCN3CCOCC3)c3ccccc23)cc1 [BIRB0796]
inhibition at 10 µM (PTH1): 0%
Percentage inhibition (PAC1 long isoform): 3.5%
inhibition at 10 µM (OPRD1): 8.5%
inhibition at 10 µM (OPRK1): -19%
inhibition at 10 µM (D1): 23%
inhibition at 10 µM (NMU1): 22.5%
inhibition at 10 µM (5-HT2A): 99.5%
inhibition at 10 µM (PAF): 19.5%
inhibition at 10 µM (Beta 1): -6%
inhibition at 10 µM (NK3): 17.5%
inhibition at 10 µM (PRP): 3%
inhibition at 10 µM (Beta 2): -9.5%
inhibition at 10 µM (MC5): 2%
inhibition at 10 µM (A3): 20.5%
inhibition at 10 µM (CysLT1): 2%
inhibition at 10 µM (OPRM1): -2.5%
inhibition at 10 µM (BB2): 0%
inhibition at 10 µM (M2): 34.5%
inhibition at 10 µM (AT1): -2.5%
inhibition at 10 µM (CB2): 80%
inhibition at 10 µM (Alpha1A): 6%
inhibition at 10 µM (DP): 12.5%
inhibition at 10 µM (FPR1): -4.5%
inhibition at 10 µM (UT/GPR14): 18.5%
inhibition at 10 µM (OT): 12.5%
inhibition at 10 µM (D5): 14%
inhibition at 10 µM (5-HT1A): 31%
inhibition at 10 µM (S1P3): -1.5%
inhibition at 10 µM (CRF1): 13%
inhibition at 10 µM (Alpha1D): 3.5%
inhibition at 10 µM (C5aR): -5.5%
inhibition at 10 µM (GnRH/LHRH): -20.5%
Percentage inhibition (Trypsin-mediated PARs): 9.0%
inhibition at 10 µM (IP1): 12.5%
inhibition at 10 µM (CXCR1): -1.5%
inhibition at 10 µM (SST4): -5.5%
inhibition at 10 µM (hERG): ≥ 50%
inhibition at 10 µM (5-HT2C): 5.5%
inhibition at 10 µM (V1A): 2%
inhibition at 10 µM (FP): 20.5%
inhibition at 10 µM (V2): 1%
inhibition at 10 µM (Alpha2A): -4%
inhibition at 10 µM (GPR109A): -1%
inhibition at 10 µM (TP): 32%
inhibition at 10 µM (A1): 19.5%
inhibition at 10 µM (VPAC2): -4%
inhibition at 10 µM (CB1): 9%
inhibition at 10 µM (Kv1.5): ≥ 50%
inhibition at 10 µM (ETB): 11%
inhibition at 10 µM (CCR1): -6%
inhibition at 10 µM (BLT1): 8.5%
inhibition at 10 µM (NTR1): -12%
inhibition at 10 µM (LPA3): 5%
inhibition at 10 µM (B2): -4.5%
inhibition at 10 µM (H3): 91.5%
inhibition at 10 µM (P2Y1): 10.5%
inhibition at 10 µM (CGRP1): 0%
inhibition at 10 µM (GAL1): -1.5%
inhibition at 10 µM (M1): 46.5%
inhibition at 10 µM (Y2): -13.5%
inhibition at 10 µM (D2L): 53.5%
inhibition at 10 µM (VPAC1): -2%
inhibition at 10 µM (LPA1): 6.5%
inhibition at 10 µM (OX1): 12%
inhibition at 10 µM (Motilin receptor): 94.5%
inhibition at 10 µM (TSH): -4%
inhibition at 10 µM (5-HT2B): 18.5%
inhibition at 10 µM (NK1): 12%
inhibition at 10 µM (H2): -5.5%
inhibition at 10 µM (PK1): -6.5%
inhibition at 10 µM (M3): 5%
inhibition at 10 µM (EP2): 2.5%
inhibition at 10 µM (CX3CR1): -12%
inhibition at 10 µM (CCK2): 2%
inhibition at 10 µM (CCR2B): 0%
inhibition at 10 µM (H1): -1.5%
inhibition at 10 µM (ETA): -4%
inhibition at 10 µM (EP3): 7.5%

IC50 (Nav1.6): 270 µM
SMILES: CCN(CC)CC(=O)Nc1c(C)cccc1C [Lidocaine]
